In this experiment the test system is solid tumour. In words: Tumour response (WHO criteria) in phase I study. It is filed as in vivo, human. An excerpt:
British Journal of Cancer (1996) 73, 744-750 O (C? 1996 Stockton Press All rights reserved 0007-0920/96 $12.00 Phase I and pharmacological study of the new topoisomerase I inhibitor G1147211, using a daily x 5 intravenous administration CJH Gerrits', GJ Creemers', JHM Schellens', P Wissel2, AS Th Planting', R Kunka2, K Selinger2, M de Boer-Dennert', Y Marijnen3, M Harteveld' and J Verweijl 'Department of Medical Oncology, Rotterdam Cancer Institute, Rotterdam, The Netherlands; 2Glaxo Wellcome Inc, Department of Clinical Pharmacology, NC, USA; 3Glaxo Wellcome Inc, Department of Clinical Research, Zeist, The Netherlands. Summary Topoisomerase I inhibitors are interesting anti-cancer agents with a novel mechanism of action. […] In subsequent patient cohorts the dose was escalated from 0.3 to 1.5 mg m-2 day-'. Pharmacokinetics analysis was performed on days 1 and 4 of the first course using a validated high- performance liquid chromatographic assay and non-compartmental methods. […] Its further development was stopped because of unpredictable and severe myelosuppression, gastrointestinal toxicity and haemorrhagic cystitis. In the late 1980s two discoveries brought about a renewal of interest in CPT; firstly, topoisomerase I was identified as the single cellular target of CPT (Hsiang et al., 1985; Hsiang and Liu, 1988) and, secondly, an overexpression of topoisomerase I was found in various tumour cell lines but not in normal tissues (Giovanella et al., 1989; Hirabayaski et al., 1992; Potmesil et al., 1988). Topoisomerase I is a nuclear enzyme that resolves topological problems of the torsionally strained (supercoiled) DNA (Slichenmyer et al., 1993). This is achieved by forming a covalent adduct between topoisome- rase I and the DNA, termed the cleavable complex. This catalytic intermediate creates single-strand DNA breaks, allowing the DNA molecule to rotate around the intact DNA strand at the cleavage site, leading to a relaxation of the DNA molecule and in this way replication, transcription and other DNA functions can proceed. These enzyme- bridged breaks are then resealed by topoisomerase I. CPT stabilises the cleavable complexes, thereby preventing resealing of single-strand DNA breaks in the presence of the drug (Covey et al., 1989; D'Arpa and Liu, 1989; Eng et al., 1988). Cytotoxicity is specific to the S-phase of the cell cycle because the double-strand breaks that occur during this phase are more difficult to repair in the presence of the drug (Horwitz and Horwitz, 1973). […]

The structures appear in SMILES notation. Structures can show the parent of a compound that is named as a salt.

With `CC[C@@]1(O)C(=O)OCc2c1cc1n(c2=O)Cc2c-1nc1cc3c(cc1c2CN1CCN(C)CC1)OCCO3` [GI147211, [7 - (methylpiperazinomethylene) - 10,11 - ethylene-dioxy-20(S)] camptothecin dihydrochloride], the “stable disease, patients” value (18 evaluable patients) is listed as “ten”. Further, the “response in leiomyosarcoma patient” value (liver metastasis of leiomyosarcoma of the stomach, after two courses) is on record as “minor response”. In addition, the “partial response, patients” value (metastatic colorectal cancer resistant to 5-FU/folinic acid, 18 evaluable patients) is on record as “One”. For the setting “partial response, colorectal cancer”, this compound gave a duration of remission of 6 weeks.

The record behind these values is PMC2074382 (British Journal of Cancer, 1996).
